Measured values taken from patent US10294202B2, “Pyrrolidinones as herbicides” (FMC Corporation, priority 2013, dated 2019).

How the values were obtained:
kochia [1] = experiment: Test A pre-/postemergence herbicide test; assay type: in vivo, Kochia scoparia
In short: (§1)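 Greenhouse pot test with pre- and postemergence application of surfactant-containing solvent formulations. Postemergence plants were 2–10 cm, one- to two-leaf stage. Response scored visually after ~10 days, 0 (no effect) to 100 (complete control).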

ryegrass, Italian = experiment: Test A pre-/postemergence herbicide test; assay type: in vivo, Lolium multiflorum
In short: as §1

kochia [2] = experiment: Test C pre-/postemergence herbicide test; assay type: in vivo, Kochia scoparia; conditions: Postemergence
Description: Seeds of plant species selected from blackgrass (Alopecurus myosuroides), ryegrass, Italian (Italian ryegrass, Lolium multiflorum), wheat (winter wheat, Triticum aestivum), galium (catchweed bedstraw, Galium aparine), corn (Zea mays), crabgrass, large (large crabgrass, Digitaria sanguinalis), foxtail, giant (giant foxtail, Setaria faberii), johnsongrass (Sorghum halepense), lambsquarters (Chenopodium album), morningglory (Ipomoea coccinea), nutsedge, yellow (yellow nutsedge, Cyperus esculentus), pigweed (Amaranthus retroflexus), ragweed (common ragweed, Ambrosia elatior), soybean (Glycine max), barnyardgrass (Echinochloa crus-galli), oilseed rape (Brassica napus), waterhemp (common waterhemp, Amaranthus rudis), kochia (Kochia scoparia), oat, wild (wild oat, Avena fatua), surinam grass (Brachiaria decumbens), foxtail, green (green foxtail, Setaria viridis), goosegrass (Eleusine indica), bromegrass, downy (downy bromegrass, Bromus tectorum), nightshade (eastern black nightshade, Solanum ptycanthum), cocklebur (common cocklebur, Xanthium strumarium), cupgrass, woolly (woolly cupgrass, Eriochloa villosa), bermudagrass (Cynodon dactylon), sunflower, (common oilseed sunflower, Helianthus annuus), Russian thistle (Salsola kali) and velvetleaf (Abutilon theophrasti) were planted into a blend of loam soil and sand and treated preemergence with test chemicals formulated in a non-phytotoxic solvent mixture which included a surfactant. At the same time, plants selected from these crop and weed species and also barley (winter barley, Hordeum vulgare), […]), chickweed (common chickweed, Stellaria media), deadnettle (henbit deadnettle, Lamium amplexicaule), and canarygrass (littleseed canarygrass, Phalaris minor) were planted in pots containing Redi-Earth® planting medium (Scotts Company, 14111 Scottslawn Road, Marysville, Ohio 43041) comprising spaghnum peat moss, vermiculite, wetting agent and starter nutrients and treated with postemergence applications of test chemicals formulated in the same manner. Plants ranged in height from 2 to 18 cm (1- to 4-leaf stage) for postemergence treatments. Treated plants and controls were maintained in a greenhouse for 13 to 15 days, after which time all species were compared to controls and visually evaluated. Plant response ratings, summarized in Table C, are based on a scale of 0 to 100 where 0 is no effect and 100 is complete control. A dash (-) response means no test result.

[3] = Postemergence, 125 g ai/ha, 0 to 100 scale, 0 is no effect, 100 is complete control
[4] = Postemergence, 500 g ai/ha, 0 to 100 scale (0 no effect, 100 complete control)
[5] = Preemergence, 125 g ai/ha, 0 to 100 scale where 0 is no effect and 100 is complete control
[6] = preemergence, 500 g ai/ha, 0 to 100 scale, 0 is no effect and 100 is complete control
[7] = Postemergence, 125 g ai/ha, visual rating on 0 to 100 scale (0 no effect, 100 complete control), approx. 10 days
[8] = 31 g ai/ha, scale 0 to 100 (0 no effect, 100 complete control)
[9] = 62 g ai/ha, scale 0 (no effect) to 100 (complete control)
[10] = 125 g ai/ha, scale 0 to 100 (0 no effect, 100 complete control)
[11] = 250 g ai/ha, scale 0 to 100 (0 no effect, 100 complete control)
[12] = Preemergence, 500 g ai/ha, visual rating on 0 to 100 scale (0 no effect, 100 complete control)
[13] = 125 g ai/ha, visual rating, 0 to 100 scale, 0 no effect, 100 complete control, approximately 10 days, preemergence
[14] = Postemergence, 1000 g ai/ha, 0 to 100 scale (0 no effect, 100 complete control)
[15] = preemergence, 1000 g ai/ha, 0 to 100 scale

Structure (SMILES) | Plant response rating, Kochia (kochia [1]; [3]) | Plant response rating, Kochia (kochia [1]; [4]) | Plant response rating, Kochia (kochia [1]; [5]) | Plant response rating, Kochia (kochia [1]; [6]) | Plant response rating, Ryegrass, Italian (ryegrass, Italian; [7]) | Plant response rating, Ryegrass, Italian (ryegrass, Italian; [4]) | Plant response rating, Ryegrass, Italian (ryegrass, Italian; [5]) | Plant response rating, Ryegrass, Italian (ryegrass, Italian; [6]) | Plant response rating, Kochia (kochia [2]; [8]) | Plant response rating, Kochia (kochia [2]; [9]) | Plant response rating, Kochia (kochia [2]; [10]) | Plant response rating, Kochia (kochia [2]; [11]) | Plant response rating, Kochia (kochia [1]; [7]) | Kochia plant response rating (kochia [1]; [12]) | Ryegrass, Italian plant response rating (ryegrass, Italian; [12]) | also measured
O=C1NCC(c2cc(F)cc(F)c2)C1C(=O)Nc1ccc(F)cc1F (racemic) [Compound 278] | 0 | 0 | 0 | 0 | 0 | 0 | 0 | 0 | 0 | 0 | 0 | 5 | – | – | – | –
O=C1NCC(c2cccc(OC(F)F)c2)C1C(=O)Nc1ccc(F)c(F)c1F (stereo not drawn) [Compound 325] | – | 80 | 70 | – | 30 | 50 | 30 | – | – | – | – | – | 60 | 80 | 50 | –
O=C1NCC(c2cccc(OC(F)F)c2)C1C(=O)Nc1cccc(F)c1F (stereo not drawn) [Compound 324] | – | 80 | 70 | – | 30 | 50 | 30 | – | – | – | – | – | 50 | 80 | 40 | –
O=C1NCC(c2cccc(C(F)(F)F)c2)C1C(=O)Nc1cccc(Cl)c1F (stereo not drawn) [Compound 316] | – | 40 | 0 | – | 20 | 30 | 20 | – | – | – | – | – | 30 | 30 | 50 | –
O=C1NCC(c2ccc(C(F)(F)F)cc2)C1C(=O)Nc1ccc(F)c(F)c1F (stereo not drawn) [Compound 232] | 80 | – | – | 80 | – | – | – | 80 | 60 | 70 | 70 | 75 | – | – | – | Plant response rating, Kochia (kochia [1]; [13]): 70; Kochia plant response rating (0 to 100 scale, 0 is no effect, 100 is complete control) (kochia [1]; Postemergence, 500 g ai/ha): 90; Plant response rating, Ryegrass, Italian (ryegrass, Italian; [13]): 40; Plant response rating, Ryegrass, Italian (ryegrass, Italian; [3]): 40; Ryegrass, Italian plant response rating (0 to 100 scale, 0 is no effect, 100 is complete control) (ryegrass, Italian; Postemergence, 500 g ai/ha): 50
O=C(Nc1ccccc1F)C1C(=S)NCC1c1cccc(C(F)(F)F)c1 (stereo not drawn) [Compound 274] | – | – | – | – | 0 | – | – | – | – | – | – | – | – | – | – | Plant response rating, Kochia (kochia [1]; [14]): 40; Plant response rating, Kochia (kochia [1]; [15]): 40; Plant response rating, Ryegrass, Italian (ryegrass, Italian; [14]): 20; Plant response rating, Ryegrass, Italian (ryegrass, Italian; [15]): 40
O=C1NCC(c2ccc(F)c(C(F)(F)F)c2)C1C(=O)Nc1ccccc1F (racemic) [Compound 76] | – | – | – | – | – | – | – | – | – | – | 50 | 65 | – | – | – | Plant response rating, Kochia (kochia [2]; 31 g ai/ha, scale 0 (no effect) to 100 (complete control)): 40; Plant response rating, Kochia (kochia [2]; 62 g ai/ha, scale 0 to 100 (0 no effect, 100 complete control)): 50
CN1CC(c2ccc(F)cc2)C(C(=O)Nc2cccc(F)c2F)C1=O (stereo not drawn) [Compound 271] | 60 | 80 | 50 | 80 | 0 | 40 | 0 | 30 | 0 | 10 | – | – | – | – | – | Plant response rating, Kochia (kochia [2]; 8 g ai/ha, scale 0 to 100 (0 no effect, 100 complete control)): 0; Plant response rating, Kochia (kochia [2]; 16 g ai/ha, scale 0 to 100 (0 no effect, 100 complete control)): 0
